Literature values as cited in patent US12478643B2, “Compositions and methods for the prevention or treatment of rheumatoid arthritis” (Rhode Island Hospital, priority 2021, dated 2025).
Like-named read-outs stand apart in the source and are kept apart here.

How the values were obtained:
[1] = biological target: T1, SHIP1 (Homo sapiens, UniProt Q92835)
T1 sequence (Q92835 1-1189): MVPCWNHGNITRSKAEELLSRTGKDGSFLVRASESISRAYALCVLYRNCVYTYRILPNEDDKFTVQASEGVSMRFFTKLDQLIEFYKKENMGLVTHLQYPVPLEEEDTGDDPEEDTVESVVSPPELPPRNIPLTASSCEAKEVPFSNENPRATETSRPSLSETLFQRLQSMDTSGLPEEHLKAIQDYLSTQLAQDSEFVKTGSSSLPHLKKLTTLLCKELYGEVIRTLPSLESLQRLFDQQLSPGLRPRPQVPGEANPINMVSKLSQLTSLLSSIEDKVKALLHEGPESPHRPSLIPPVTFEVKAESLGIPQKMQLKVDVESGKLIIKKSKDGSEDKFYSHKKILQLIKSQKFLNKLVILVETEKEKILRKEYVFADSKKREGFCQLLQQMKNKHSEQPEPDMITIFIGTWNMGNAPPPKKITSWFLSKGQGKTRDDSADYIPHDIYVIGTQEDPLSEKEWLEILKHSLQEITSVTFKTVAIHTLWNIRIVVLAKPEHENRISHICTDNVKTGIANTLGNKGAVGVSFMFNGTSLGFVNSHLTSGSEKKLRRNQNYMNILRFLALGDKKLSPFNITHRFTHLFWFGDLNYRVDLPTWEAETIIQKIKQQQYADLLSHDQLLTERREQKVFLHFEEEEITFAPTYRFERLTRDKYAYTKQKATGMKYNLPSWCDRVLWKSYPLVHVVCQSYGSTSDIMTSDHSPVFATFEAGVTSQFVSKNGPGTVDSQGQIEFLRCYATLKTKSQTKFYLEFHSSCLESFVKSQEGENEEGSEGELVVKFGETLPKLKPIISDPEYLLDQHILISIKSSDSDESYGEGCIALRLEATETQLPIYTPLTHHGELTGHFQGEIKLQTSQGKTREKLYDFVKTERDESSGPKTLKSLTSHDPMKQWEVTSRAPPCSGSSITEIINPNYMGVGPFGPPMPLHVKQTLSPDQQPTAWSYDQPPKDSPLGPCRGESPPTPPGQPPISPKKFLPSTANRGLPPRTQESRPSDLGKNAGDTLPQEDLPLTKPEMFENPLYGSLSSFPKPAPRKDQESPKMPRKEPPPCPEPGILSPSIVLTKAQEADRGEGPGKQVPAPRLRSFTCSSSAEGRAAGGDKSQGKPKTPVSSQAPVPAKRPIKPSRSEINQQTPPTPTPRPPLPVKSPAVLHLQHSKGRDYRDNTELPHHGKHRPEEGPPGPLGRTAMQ

[2] = biological target: T1, SHIP1; conditions: at 100 μM; cited from earlier work
[3] = biological target: T2, SHIP2 (Homo sapiens, UniProt O15357); conditions: at 100 μM; cited from earlier work
T2 sequence (O15357 1-1258): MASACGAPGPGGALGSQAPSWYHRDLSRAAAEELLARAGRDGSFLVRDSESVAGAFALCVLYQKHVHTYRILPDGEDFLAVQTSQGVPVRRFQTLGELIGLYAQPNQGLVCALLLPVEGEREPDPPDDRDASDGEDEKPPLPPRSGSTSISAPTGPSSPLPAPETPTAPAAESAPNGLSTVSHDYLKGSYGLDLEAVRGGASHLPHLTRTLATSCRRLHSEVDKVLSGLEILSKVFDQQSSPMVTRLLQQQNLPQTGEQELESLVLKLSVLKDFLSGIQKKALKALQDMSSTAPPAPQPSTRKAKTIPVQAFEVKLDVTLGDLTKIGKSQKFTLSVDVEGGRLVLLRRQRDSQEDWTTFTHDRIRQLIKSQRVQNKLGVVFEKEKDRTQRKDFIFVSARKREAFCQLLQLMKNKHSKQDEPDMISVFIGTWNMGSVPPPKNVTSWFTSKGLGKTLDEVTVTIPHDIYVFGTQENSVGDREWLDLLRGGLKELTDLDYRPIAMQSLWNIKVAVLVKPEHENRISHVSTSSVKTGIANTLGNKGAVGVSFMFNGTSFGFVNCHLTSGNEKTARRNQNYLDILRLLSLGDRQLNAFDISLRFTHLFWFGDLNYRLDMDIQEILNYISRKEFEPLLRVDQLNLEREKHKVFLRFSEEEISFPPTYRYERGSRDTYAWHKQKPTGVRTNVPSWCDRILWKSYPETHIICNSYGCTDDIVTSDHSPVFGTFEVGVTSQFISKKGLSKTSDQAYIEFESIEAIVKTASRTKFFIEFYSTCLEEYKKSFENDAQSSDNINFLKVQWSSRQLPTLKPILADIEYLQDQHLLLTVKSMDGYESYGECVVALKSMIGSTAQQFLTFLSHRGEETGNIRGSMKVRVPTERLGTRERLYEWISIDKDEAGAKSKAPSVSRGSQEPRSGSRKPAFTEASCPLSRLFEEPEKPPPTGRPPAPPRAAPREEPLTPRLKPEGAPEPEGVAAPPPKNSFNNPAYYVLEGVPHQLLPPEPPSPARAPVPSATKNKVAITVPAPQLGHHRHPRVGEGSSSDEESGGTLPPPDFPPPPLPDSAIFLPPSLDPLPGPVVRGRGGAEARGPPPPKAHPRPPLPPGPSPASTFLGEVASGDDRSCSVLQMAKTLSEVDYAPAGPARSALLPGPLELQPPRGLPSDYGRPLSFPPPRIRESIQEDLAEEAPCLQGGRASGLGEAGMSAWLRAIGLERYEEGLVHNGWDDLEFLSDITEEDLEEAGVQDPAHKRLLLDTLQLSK

[4] = Table 1; read-out: IC50 SHIP1; cited from earlier work

| SMILES | IC50 [1, 4] [µM] | inhibition of SHIP1 activity [2] | inhibition of SHIP2 [3] | also measured |
| --- | --- | --- | --- | --- |
| CC12CCCC1C1CCC3CC(N)CCC3(C)C1CC2 (centres unmarked) [Compound K185] | 18 |  |  |  |
| C[C@H](NC(=O)c1sccc1OCc1ccc(Cl)cc1)c1ccccc1 [AS194490] | 13 |  |  |  |
| CSc1ccc2c(c1)c(CCN)c(C)n2Cc1ccccc1Cl [Compound 28] |  | approximately 70% | 50% |  |
| CC12CCCC1C1CCC3CC(N)C(N)CC3(C)C1CC2 (centres unmarked) [Compound K161] | 6 |  |  |  |
| O[C@H](c1cc(-c2ccccc2)nc2c1ccc1ccccc12)[C@@H]1CCCCN1 [Compound 26] |  | completely inhibited | approximately 60% |  |
| CC[C@H]1CC[C@H]2[C@@H]3C[C@@H](O)[C@@]4(O)C[C@H](N)CC[C@]4(C)[C@H]3CC[C@]12C [Compound K116] | 1.5 to 6 |  |  |  |
| O[C@H](c1cc(C2C3CC4CC(C3)CC2C4)nc2c(Cl)cc(Cl)cc12)[C@@H]1CCCCN1 (some centres unmarked) [Compound 27] |  | completely inhibited | 90% |  |
| CC12CCCC1C1CCC3CC(N)CCC3(C)C1CC2 (centres unmarked) [Compound K118] |  |  |  | IC50 ([1]; read-out: IC50 SHIP1; Table 1; cited from earlier work): 16 µM |
